Source: the supplement of paper PMC6718421

Test system: Caenorhabditis elegans
Test: animals per well after 6 days (50 L1 seeded); higher = more viable animals (less toxic)
Method: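 About 50 synchronized L1s per well were grown in liquid NGM with E. coli HB101 and twofold serial dilutions (0.12-120 uM) of crystal- or sphere-forming wactives for 6 days at 20 C; animals per well were counted, and overgrown wells (>50 animals) were scored as 100. Values are averages of replicate wells for wild type and sms-5(ok2498).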

CCCc1nc(-c2ccc(-c3ccc(F)cc3)cc2)no1 [wact-390]
animals per well
Details | genotype: sms-5(ok2498) | genotype: wild type N2
0.1171875 µM | > 100 | > 100
0.234375 µM | > 100 | > 100
0.46875 µM | > 100 | > 100
0.9375 µM | > 100 | > 100
1.875 µM | > 100 | 56.2
3.75 µM | > 100 | 4.83
7.5 µM | > 100 | 3.33
15 µM | > 100 | 2.83
30 µM | > 100 | 2.33
60 µM | > 100 | 0.333
120 µM | 92.7 | 0.667
